Measured values taken from PMC3509069, “A DKP Cyclo(L-Phe-L-Phe) Found in Chicken Essence Is a Dual Inhibitor of the Serotonin Transporter and Acetylcholinesterase” (PLoS ONE, 2012).

Biological target: T1, acetylcholinesterase (AChE) (Homo sapiens, UniProt P22303)
T1 construct: amphiphilic form from human erythrocytes
Assay: colorimetric AChE assay with MATP+ substrate
Assay type: biochemical

T1 sequence (P22303 other isoform, or with tags, fused parts or gaps): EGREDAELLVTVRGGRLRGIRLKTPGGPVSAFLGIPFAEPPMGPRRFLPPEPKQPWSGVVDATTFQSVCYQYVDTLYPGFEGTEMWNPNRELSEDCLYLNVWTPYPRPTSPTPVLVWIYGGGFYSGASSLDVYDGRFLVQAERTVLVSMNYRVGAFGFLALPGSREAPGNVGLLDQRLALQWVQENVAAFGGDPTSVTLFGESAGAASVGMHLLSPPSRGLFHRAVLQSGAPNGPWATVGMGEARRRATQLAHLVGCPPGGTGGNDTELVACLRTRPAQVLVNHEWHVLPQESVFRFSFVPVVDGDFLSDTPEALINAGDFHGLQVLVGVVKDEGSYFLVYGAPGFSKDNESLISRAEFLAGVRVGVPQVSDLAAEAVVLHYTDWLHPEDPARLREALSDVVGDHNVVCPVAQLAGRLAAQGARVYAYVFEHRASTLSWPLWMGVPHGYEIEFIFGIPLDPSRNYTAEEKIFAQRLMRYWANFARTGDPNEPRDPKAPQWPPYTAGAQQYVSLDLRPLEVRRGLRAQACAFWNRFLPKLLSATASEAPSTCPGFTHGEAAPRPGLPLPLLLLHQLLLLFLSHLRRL

Structure (SMILES)	IC50 [µM]
O=C1NC(Cc2ccccc2)C(=O)NC1Cc1ccccc1 [cyclo(L-Phe-L-Phe)]	~3.4
O=C1[C@@H]2CCCN2C(=O)[C@@H]2CCCN12 [cyclo(L-Pro-L-Pro)]	160
